Measurements from patent US20230286973A1, “PROTEIN SECRETION INHIBITORS” (KEZAR LIFE SCIENCES, priority 2020, published 2023).
Like-named read-outs stand apart in the source and are kept apart here.

Key:
[1] = Liver Microsome Stability Assay (rat); details: rat liver microsomes, with NADPH, 1.0 uM compound
Procedure: (§1) Stability of a compound was assessed in the presence of liver microsomes from various sources—mouse, rat, monkey and human liver microsomes. 1.0 uM compound, 0.4% DMSO in 0.1 M Potassium Phosphate with 1.0 mg/mL liver microsomes, were incubated at 37° C. with or without 1 mM NADPH. The samples were quenched at 0, and 30 minutes.

[2] = tested on: multiple myeloma cell line NCI-H929; assay: H929 Cell Viability Assay; format: cell-based, human; details: Homo sapiens, NCI-H929, 48 h, NCI-H929 cells, Celltiter-Glo
Summary of the method: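 Luminescent CellTiter-Glo read-out of viability after a 48 h exposure (37° C, 5% CO2) of NCI-H929 myeloma cells to compound dilutions in RPMI 1640 plus 10% FBS. Data for structures drawn without stereochemistry refer to stereoisomer mixtures.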

[3] = tested on: TNFα-FL/Gaussia Luciferase; assay: Dox Induced TNFα-FL-Gluc Assay; format: cell-based; details: for IC50: 24 hr Dox induction, 293FRT/TO cells, read-out: 24 hr Dox Inducible TNFaFLGluc 293FRT/TO: Mean IC50; for 24 hr Dox Inducible TNFaFLGluc 293FRT/TO: TNF/PD1: ratio of TNFaFLGluc IC50 to PD1ssGluc IC50
Summary of the method: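 Compound was added with doxycycline to cells plated a day earlier, incubating at 37° C under 5% CO2. The reporter line is 293 T-REx expressing a TNFα (1-233)–Gaussia luciferase fusion under tetracycline-regulated control.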

[4] = tested on: PD1-ss+10aa/Gaussia Luciferase; assay: Dox-Induced PD1-ss-Gluc Assay; format: cell-based; details: 24 hr Dox induction, 293FRT/TO cells, read-out: 24 hr Dox Inducible PD1ssGluc 293FRT/TO: Mean IC50
Summary of the method: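 Flp-In 293 T-REx, stable line; Tet-regulated PD1-ss+10aa fused to Gaussia luciferase; plated day prior; cpd + doxycycline in DMSO/media; 37 °C, 5% CO2.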

[5] = tested on: multiple myeloma cell line U266B1; assay: U266 Cell Viability Assay; format: cell-based, human; details: Homo sapiens, U-266, 48 h, U266B1 cells, Celltiter-Glo
Summary of the method: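 CellTiter-Glo luminescence was read after a 48 h compound exposure (37 °C, 5% CO2) of human U266B1 myeloma cells grown in 10% FBS-supplemented RPMI 1640. Data for structures shown without defined stereochemistry refer to stereoisomer mixtures.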

[6] = Liver Microsome Stability Assay (human); details: human liver microsomes, with NADPH, 1.0 uM compound
Procedure: as §1

[7] = Liver Microsome Stability Assay (monkey); details: monkey liver microsomes, with NADPH, 1.0 uM compound
Procedure: as §1

[8] = tested on: IL-2-FL/Gaussia Luciferase; assay: Dox Induced IL2-FL-Gluc Assay; format: cell-based; details: for IC50: 24 hr Dox induction, 293FRT/TO cells, read-out: 24 hr Dox Inducible IL2FLGluc 293FRT/TO: Mean IC50; for 24 hr Dox Inducible IL2FLGluc 293FRT/TO: IL2/PD1: ratio of IL2FLGluc IC50 to PD1ssGluc IC50
Summary of the method: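 Compounds in DMSO/medium with doxycycline were applied to a 293 T-REx stable line expressing an IL-2 (aa 1-153)–Gaussia luciferase fusion under tetracycline-regulated control, cells seeded one day earlier; incubation at 37 °C, 5% CO2. Structures drawn without stereochemistry were tested as stereoisomer mixtures.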

[9] = tested on: HER3-ss+4aa/Gaussia Luciferase; assay: Dox-Induced Her3-ss-Gluc Assay; format: cell-based; details: 24 hr Dox induction, 293FRT/TO cells, read-out: 24 hr Dox Inducible Her3(ss + 4)Gluc 293FRT/TO: Mean IC50
Summary of the method: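 Compounds were diluted in DMSO/media containing doxycycline. They were added to Flp-In 293 T-REx cells plated the previous day, then incubated at 37 °C under 5% CO2. These cells stably express, under T-REx control, Gaussia luciferase fused to the HER3 signal sequence plus 4 amino acids.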

[10] = Liver Microsome Stability Assay (mouse); details: mouse liver microsomes, with NADPH, 1.0 uM compound
Procedure: as §1

[11] = '<=>' given where both are I.A.

Liver Microsome Stability (Multiple Species): Rat - % Remaining after 30 min w/NADPH [1] [%] | EC50 [2] [µM] | IC50 [3] [µM] | IC50 [4] [nM] | EC50 [5] [µM] | Liver Microsome Stability (Multiple Species): Human - % Remaining after 30 min w/NADPH [6] [%] | Liver Microsome Stability (Multiple Species): Monkey - % Remaining after 30 min w/NADPH [7] [%] | IC50 [8] [µM] | IC50 [9] [nM] | Liver Microsome Stability (Multiple Species): Mouse - % Remaining after 30 min w/NADPH [10] [%] | IC50 ([3]; mean) [µM] | IC50 ([4]; mean) [nM] | IC50 ([8]; mean) [µM] | IC50 ([9]; mean) [nM] | Structure (SMILES) | 24 hr Dox Inducible TNFaFLGluc 293FRT/TO: TNF/PD1 [3] | 24 hr Dox Inducible IL2FLGluc 293FRT/TO: IL2/PD1 [8] | 24 hr Dox Inducible TNFaFLGluc 293FRT/TO: TNF/PD1 [3, 11] | 24 hr Dox Inducible IL2FLGluc 293FRT/TO: IL2/PD1 [8, 11]
24.1 | 13.2 | > 25 | 2410 | > 25 | 44.4 | 28.1 | 3.28 | 2130 | 48.9 |  |  |  |  | NC(=O)c1cc(C(=O)Nc2nc([C@H]3CCCN3c3ccccc3)cs2)n(Cc2ccnc(F)c2)c1 [Compound A152, (R)-1-((2-fluoropyridin-4-yl)methyl)-N2-(4-(1-phenylpyrrolidin-2-yl)thiazol-2-yl)-1H-pyrrole-2,4-dicarboxamide] | >10.4 | 1.4 |  | 
2.51 | 1.05 | 0.31 | 40.7 | > 25 | 0.5 | 0.73 | 0.087 | 62.6 | 1 |  |  |  |  | CC(=O)N1CCC[C@H](Oc2ccc(N3CCC[C@@H]3c3csc(NC(=O)c4cccn4Cc4ccnc(F)c4)n3)cc2)C1 [Compound A84, N-(4-((R)-1-(4-(((S)-1-acetylpiperidin-3-yl)oxy)phenyl)pyrrolidin-2-yl)thiazol-2-yl)-1-((2-fluoropyridin-4-yl)methyl)-1H-pyrrole-2-carboxamide] | 7.61 | 2.1 |  | 
37.7 | 0.16 | 0.0395 | 2 | > 25 | 45.3 | 18.9 | 0.00493 | 4.14 | 60.7 |  |  |  |  | O=C(Nc1nc([C@H]2CCCN2c2ccc(Br)cc2)cs1)c1cccn1Cc1ccnc(F)c1 [Compound A116] | 19.7 | 2.5 |  | 

Further lines, the compound ahead of its results:

Structure (SMILES) | Liver Microsome Stability (Multiple Species): Rat - % Remaining after 30 min w/NADPH [1] [%] | EC50 [2] [µM] | IC50 [3] [µM] | IC50 [4] [nM] | EC50 [5] [µM] | Liver Microsome Stability (Multiple Species): Human - % Remaining after 30 min w/NADPH [6] [%] | Liver Microsome Stability (Multiple Species): Monkey - % Remaining after 30 min w/NADPH [7] [%] | IC50 [8] [µM] | IC50 [9] [nM] | Liver Microsome Stability (Multiple Species): Mouse - % Remaining after 30 min w/NADPH [10] [%] | IC50 ([3]; mean) [µM] | IC50 ([4]; mean) [nM] | IC50 ([8]; mean) [µM] | IC50 ([9]; mean) [nM] | 24 hr Dox Inducible TNFaFLGluc 293FRT/TO: TNF/PD1 [3] | 24 hr Dox Inducible IL2FLGluc 293FRT/TO: IL2/PD1 [8] | 24 hr Dox Inducible TNFaFLGluc 293FRT/TO: TNF/PD1 [3, 11] | 24 hr Dox Inducible IL2FLGluc 293FRT/TO: IL2/PD1 [8, 11]
N#CCCCn1cccc1C(=O)Nc1nc([C@H]2CCCN2c2ccccc2)cs1 [Compound C2, (R)-1-(3-cyanopropyl)-N-(4-(1-phenylpyrrolidin-2-yl)thiazol-2-yl)-1H-pyrrole-2-carboxamide] | 17.6 | > 25 |  |  | > 25 | 33.9 | 0.23 |  |  | 18 | 9.74 | 483 | 1.52 | 1380 |  |  | 20.2 | 3.1
COCCCCn1cccc1C(=O)Nc1nc([C@H]2CCCN2c2ccccc2)cs1 [Compound C23, (R)-1-(4-methoxybutyl)-N-(4-(1-phenylpyrrolidin-2-yl)thiazol-2-yl)-1H-pyrrole-2-carboxamide] | 8.52 | 24.1 |  |  | > 25 | 15.8 | 4.38 |  |  | 12.7 | > 25 | 5090 | 7.65 | 17500 |  |  | >4.91 | 1.5
O=C(Nc1nc(/C=C/c2cn3ccccc3n2)cs1)c1cccn1Cc1ccncc1 [Compound B50, (E)-N-(4-(2-(imidazo[1,2-a]pyridin-2-yl)vinyl)thiazol-2-yl)-1-(pyridin-4-ylmethyl)-1H-pyrrole-2-carboxamide] | 0.06 | 18.8 | > 25 | 339 | > 24.6 | 1.21 | 0.74 | > 25 | 11400 | 0.94 |  |  |  |  | >73.7 | >74 |  | 
CC(C)n1ccc(/C=C/c2csc(NC(=O)c3cccn3Cc3ccncc3)n2)n1 [Compound B75, (E)-N-(4-(2-(1-isopropyl-1H-pyrazol-3-yl)vinyl)thiazol-2-yl)-1-(pyridin-4-ylmethyl)-1H-pyrrole-2-carboxamide] | 0.27 | 7.16 | 10.3 | 446 | 6.75 | 2.26 | 0.23 | 17.1 | 5670 | 0.94 |  |  |  |  | 23 | 38 |  | 
Cc1ccc(/C=C/c2csc(NC(=O)c3cccn3Cc3ccnc(F)c3)n2)nc1F [Compound B49, (E)-N-(4-(2-(6-fluoro-5-methylpyridin-2-yl)vinyl)thiazol-2-yl)-1-((2-fluoropyridin-4-yl)methyl)-1H-pyrrole-2-carboxamide] | 4.13 | 11.2 | 2.51 | 27.4 | > 19.1 | 1.53 | 1.51 | 1.26 | 131 | 12.5 |  |  |  |  | 91.4 | 46 |  | 
CC(C)c1nc(/C=C/c2csc(NC(=O)c3cccn3Cc3ccncc3)n2)co1 [Compound B38, (E)-N-(4-(2-(2-isopropyloxazol-4-yl)vinyl)thiazol-2-yl)-1-(pyridin-4-ylmethyl)-1H-pyrrole-2-carboxamide] | 1.03 | 7.56 | 7.05 | 192 | 8.93 | 0.54 | 0.69 | 5.59 | 1380 | 6.78 |  |  |  |  | 36.6 | 29 |  | 
